Test results as given in patent publication US8314078B2, “Silver nanoparticles as anti-microbial” (Vascular Vision Pharmaceutical Co., priority 2009, dated 2012).

Columns and labels:
[1] = test system: S. aureus; assay: Minimum Inhibition Concentration (MIC) assay, modified micro-broth dilution, S. aureus; assay type: cell-based, Staphylococcus aureus; details: for activity against Staphylococcus aureus: at concentrations up to 1.0 μM; for MIC against S. aureus: mean±SEM, n=3, 18 hours at 37° C.
[2] = test system: E. coli; assay: Minimum Inhibition Concentration (MIC) assay, modified micro-broth dilution, E. coli; assay type: cell-based, Escherichia coli; details: for activity against Escherichia coli: at concentrations up to 1.0 μM; for MIC against E. coli: mean±SEM, n=3, 18 hours at 37° C.

| Substance | activity against Staphylococcus aureus [1] | MIC against S. aureus [1] | activity against Escherichia coli [2] | MIC against E. coli [2] |
| --- | --- | --- | --- | --- |
| 2,6-diaminopyridinyl heparin [DAPHP] | no activity | >1.0 μM of sugar | no activity | >1.0 μM of sugar |
| hyaluronan [HA] | no activity | >1.0 μM of sugar | no activity | >1.0 μM of sugar |
